Earlier results as cited in patent publication US6369065B1, “CD40 signal blocking agent” (UCB S.A., priority 2000, dated 2002).

System: aorta lesions
Settings: rabbit models of arteriosclerosis

CCCCCN(CCO)c1cc(N2CCCCC2)nc2ncnn12 [AR12463]
progress of aorta lesions: suppress the progress of aorta lesions
